Data set [1] can be described thus: Stability of peptides after in vitro simulated digestion (RP-HPLC). In kind it is in vitro ADME. Also on record: remaining at 2 min: dose or concentration left out as unconfirmed. The settings on record: for Oral-gastric digestion (stability of peptide): after oral and gastric phase; for Oral-gastric digestion (stability of peptide) / Oral-gastric-intestinal digestion (stability of peptide) / remaining at 2 min: RP-HPLC peak area; for Oral-gastric-intestinal digestion (stability of peptide): after oral, gastric and intestinal phase; for decrease of stability after intestinal digestion: relative to oral-gastric digestion; for remaining at 2 min: simulated salivary fluid (SSF) with salivary amylase, after oral phase, read-out: Oral digestion (stability of peptide). The method, then:
(§1) Based on the method described by Brodkorb et al. ([Brodkorb et al., 2019]), the following solutions were prepared: SSF, SGF, and SIF salt solutions, and salivary amylase, pepsin, and trypsin solutions.
Each peptide was dissolved at a concentration of 1 mg/mL, and 0.094 mL of SSF, 0.001 mL of CaCl2·2H2O (0.3 M), 0.025 mL of salivary amylase (75 U/mL), and 0.005 mL of H2O were sequentially added, for a total volume of 0.25 mL. The mixture was then incubated in a 37 °C incubator for 2 min.
Briefly, 0.25 mL of the oral digestion mixture was sequentially combined with 0.12 mL of SGF, 0.001 mL of CaCl2·2H2O (0.3 M), 0.048 mL of pepsin (2000 U/mL), 0.060 mL of SGF, 0.011 mL of H2O, and 0.010 mL of HCl (1 M), for a total volume of 0.5 mL. The mixture was then incubated in a 37 °C incubator for 2 h.
A 0.50-mL sample of the gastric digestion mixture was successively combined with 0.195 mL of SIF, 0.001 mL of CaCl2·2H2O (0.3 M), 0.125 mL of trypsin (100 U/mL), 0.100 mL of SIF, and 0.079 mL of H2O. The mixture was then incubated in a 37 °C incubator for 2 h at a pH of 7.0.
After oral, gastric, and intestinal digestion, the digestion mixture was filtered through a 0.22-μm sterile filter. The filtrate was stored at −20 °C for subsequent analysis.
The in vitro simulated digestion experiments of the peptides were conducted in accordance with the method described by Hao et al., with minor modifications ([Hao et al., 2020]). The stability of peptides post-digestion was assessed by RP-HPLC (CAP-CELL PAK C18 AQ S-5, 10 mm × 150 mm column, Shiseido, Tokyo, Japan) with a detection wavelength of 228 nm. The formula for determining the peptide stability was as follows: Stability of peptides%=Pa/Pb×100 where Pa represents the peak area of the digested sample, and Pb represents the peak area of the reference sample.

Data set [2] concerns the target T1, DPP-IV (Homo sapiens, UniProt P27487). In words: DPP-IV inhibition by the peptides (Gly-Pro-pNA substrate). The data set is classed as biochemical. Particulars: Gly-Pro-pNA 0.2 mM, DPP-IV 0.0025 U/mL, 60 min; read-out: DPP-IV inhibitory activity IC50. The method, then:
Peptides were prepared at various concentrations and transferred to a 96-well microplate containing Gly-Pro-pNA (0.2 mM). The microplates were then incubated for 5 min. Subsequently, DPP-IV (0.0025 U/mL) was added, followed by an additional incubation for 60 min. […] The peptides, Gly-Pro-pNA, and DPP-IV were then dissolved in Tris-HCl (0.1 M). Tris-HCl was used as the negative control with DPP-IV but without the peptides and as the blank control without the peptides or DPP-IV.

In a further data set the test system is Caco-2 cells. In words: Cytotoxicity assay (CCK-8). In kind it is cell-based. Particulars: 24 h, GL-6 0.195–3.11 mM, LY-5 0.193–3.07 mM. The method, then: A peptide cytotoxicity assay using Caco-2 cells was conducted based on the method outlined by Hao et al. with minor modifications ([Hao et al., 2020]). Initially, the cells were evenly seeded on a 96-well plate with 100 μL of 2 × 10^4 cells. After seeding, the plate was placed in a sterile and CO2-enriched incubator. After a 24-h incubation, the medium was removed, and the adherent cells were used for subsequent experiments. The peptides were dissolved in the basal medium (DMEM) and cells were treated with different concentrations of peptides. After a 24-h incubation period, 10 μL of CCK-8 was added to each well and incubated with the cells. The absorbance at 450 nm was recorded to determine cell viability.
The following formula was used to calculate cell viability, with cells cultured in the basal medium used as the control group for comparison: Cell viability%=Asample/Acontrol×100

In data set [3] the target is T1, DPP-IV. In words: DPP-IV inhibitory activity of peptides after in vitro simulated digestion. In kind it is biochemical. The settings on record: GL-6 at 130.68 μM, LY-5 at 179.52 μM; after oral-gastric-intestinal digestion. The method, then:
The method outlined by Nongonierma et al. ([Nongonierma & FitzGerald, 2013]) was adapted for our study. Peptides were prepared at various concentrations and transferred to a 96-well microplate containing Gly-Pro-pNA (0.2 mM). The microplates were then incubated for 5 min. Subsequently, DPP-IV (0.0025 U/mL) was added, followed by an additional incubation for 60 min. The absorbance of the mixture was measured at 405 nm. The peptides, Gly-Pro-pNA, and DPP-IV were then dissolved in Tris-HCl (0.1 M). Tris-HCl was used as the negative control with DPP-IV but without the peptides and as the blank control without the peptides or DPP-IV. Sitagliptin was used as the positive control instead of the peptides. The formula for calculating the inhibitory activity was as follows: DPP−IVinhibitory activity%=Ac−As/Ac−Ab×100 where absorbance values for the control, sample, and blank groups were designated as Ac, As, and Ab, respectively.
as §1
Each peptide was dissolved at a concentration of 1 mg/mL, and 0.094 mL of SSF, 0.001 mL of CaCl2·2H2O (0.3 M), 0.025 mL of salivary amylase (75 U/mL), and 0.005 mL of H2O were sequentially added, for a total volume of 0.25 mL. […]

Data set [4] relates to T2, DPP-IV.
T2 construct: endogenous in cells; host or cells: Caco-2 cells (Haixing Biological Technology Co., Ltd.)
In words: DPP-IV inhibitory activity in Caco-2 cells (Gly-Pro-AMC substrate). In kind it is cell-based. The settings on record: peptide 2 mg/mL (GPFPLL 3.11 mM, LPYPY 3.07 mM), 24 h. The procedure:
Caco-2 cells were seeded on a black 96-well plate at a density of 2 × 10^4 cells per well. Subsequently, the cells were treated with sample solutions at various concentrations and then further incubated for 24 h. After incubating, the peptide solutions and medium were removed from the wells, and 100 μL of the Gly-Pro-AMC substrate (50 μM) was added to each well and incubated for 10 min at 37 °C.

Data set [5] has as its system DPP-IV. The settings on record: cited from earlier work.
For data set [6], the target named is angiotensin-converting enzyme (ACE). The settings on record: ref Chen, Yu, Wu, & He, 2022, read-out: ACE inhibitory IC50; cited from earlier work.
On the set-up of data set [7]: method as in Yin et al., 2022. The settings on record: ref Yin et al., 2022; cited from earlier work.

Read-outs that look alike come from different tables or passages of the source. Where no end group is shown, it is not given here.

In general, IC50 refers to the concentration needed to halve the response being measured.

T1 sequence (P27487 whole entry): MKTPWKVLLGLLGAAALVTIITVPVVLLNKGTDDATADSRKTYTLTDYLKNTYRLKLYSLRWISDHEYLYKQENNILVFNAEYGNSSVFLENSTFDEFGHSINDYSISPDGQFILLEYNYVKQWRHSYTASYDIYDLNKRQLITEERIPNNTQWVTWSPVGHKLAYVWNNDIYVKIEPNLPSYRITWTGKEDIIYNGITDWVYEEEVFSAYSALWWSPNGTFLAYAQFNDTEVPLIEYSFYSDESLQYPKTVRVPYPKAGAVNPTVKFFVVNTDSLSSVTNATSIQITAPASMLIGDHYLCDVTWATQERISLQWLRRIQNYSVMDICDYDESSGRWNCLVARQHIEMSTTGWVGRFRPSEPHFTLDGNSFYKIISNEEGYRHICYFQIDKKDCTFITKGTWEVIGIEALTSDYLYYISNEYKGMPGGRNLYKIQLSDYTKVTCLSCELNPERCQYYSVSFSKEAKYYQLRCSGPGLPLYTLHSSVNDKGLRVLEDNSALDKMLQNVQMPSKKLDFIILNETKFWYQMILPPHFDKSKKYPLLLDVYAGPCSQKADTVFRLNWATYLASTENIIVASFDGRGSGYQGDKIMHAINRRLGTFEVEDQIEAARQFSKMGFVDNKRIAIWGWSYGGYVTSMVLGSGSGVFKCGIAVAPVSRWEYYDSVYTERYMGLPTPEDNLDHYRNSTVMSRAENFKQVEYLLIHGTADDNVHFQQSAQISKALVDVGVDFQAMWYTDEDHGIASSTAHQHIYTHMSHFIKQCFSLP

For the substance GPFPLL [GPFPLL], in data set [1], the “Oral-gastric digestion (stability of peptide)” value is recorded as 96.37%, the “Oral-gastric-intestinal digestion (stability of peptide)” value is 69.48%, the “decrease of stability after intestinal digestion” value was 26.89% and the remaining at 2 min was 99.6%. In addition, the IC50 on DPP-IV [2] was 131 ± 10.4 µM. For the same substance, in the data set on Caco-2 cells, the “cytotoxicity to Caco-2 cells” value is “Neither GL-6 nor LY-5 exhibited significant cytotoxicity”. Moreover, at DPP-IV [3], the “DPP-IV inhibitory rate after intestinal digestion” value is 31.90 % ± 1.80. The “DPP-IV inhibition rate in Caco-2 cells” value with DPP-IV [4] was 46.53 % ± 3.48.

For the substance LPFYPN, in the data set with DPP-IV [5] (coix seed protein peptide, ref Zhang et al., 2023), the “mode of inhibition of DPP-IV” value is given as “competitive inhibition”.

Turning to PPGIPYW, the “mode of inhibition of DPP-IV” value with DPP-IV [5] (chickpea protein peptide, ref Zan et al., 2023) is on record as “competitive inhibition”.

Take IPYWTY: the “mode of inhibition of DPP-IV” value with DPP-IV [5] (pea protein peptide, ref Zhang, Zhu, et al., 2022) is “competitive inhibition”.

For EACF, the IC50 in data set [6] is 41.1 µM.

As to LLSPP, the “stability after intestinal digestion” value in data set [7] is 80%.

As for LPVGP, in data set [7], the “stability after intestinal digestion” value is reported as 80%.

Take CDF: the IC50 in data set [6] is 192 µM.

Consider LPYPY [LPYPY], for which, in data set [1], the “Oral-gastric digestion (stability of peptide)” value is recorded as 97.60%, the “Oral-gastric-intestinal digestion (stability of peptide)” value is 81.99%, the “decrease of stability after intestinal digestion” value is 15.61% and the remaining at 2 min is 99.5%. Also, the IC50 on DPP-IV [2] was determined as 180 ± 18.9 µM. Further, the “cytotoxicity to Caco-2 cells” value in the data set on Caco-2 cells was “Neither GL-6 nor LY-5 exhibited significant cytotoxicity”. For the same substance, at DPP-IV [3], the “DPP-IV inhibitory rate after intestinal digestion” value is on record as 39.37 % ± 0.90. Further, the “DPP-IV inhibition rate in Caco-2 cells” value in the data set on DPP-IV [4] is on record as 65.98 % ± 2.87.

Regarding GPFPILN [GPFPILN], on DPP-IV [2], the IC50 came to 198 ± 14.9 µM.

Source of the values: PMC11838108, “Screening and evaluation of novel DPP-IV inhibitory peptides in goat milk based on molecular docking and molecular dynamics simulation” (Food Chemistry: X, 2025).
